Test results taken from the NIST ThermoML archive (doi:10.1021/je700032n).
“And” between values parts separate entries of the source, which are not always exact repeats. Equal values may be shown once.

Details: Liquid; for viscosity: Falling or rolling sphere viscometry; for mass density: 101.33 kPa, Vibrating tube method

CCCCCCn1cc[n+](C)c1.F[P-](F)(F)(F)(F)F [1-hexyl-3-methylimidazolium hexafluorophosphate]
Details	viscosity
273.15 K, 100 kPa	3924 mPa·s
278.15 K, 100 kPa	2428 mPa·s
283.15 K, 100 kPa	1566 mPa·s and 1565 mPa·s
288.15 K, 100 kPa	1036 mPa·s and 1035 mPa·s
293.15 K, 100 kPa	705.1 mPa·s
298.15 K, 100 kPa	496.4 mPa·s and 496.5 mPa·s
298.15 K, 22000 kPa	685.3 mPa·s
298.15 K, 42100 kPa	917.7 mPa·s
298.15 K, 60300 kPa	1190 mPa·s
298.15 K, 80300 kPa	1572 mPa·s
298.15 K, 100100 kPa	2064 mPa·s
303.15 K, 100 kPa	356.9 mPa·s and 356.8 mPa·s
313.15 K, 100 kPa	197 mPa·s
313.15 K, 400 kPa	197.3 mPa·s
313.15 K, 25700 kPa	276.7 mPa·s
313.15 K, 50800 kPa	381.8 mPa·s
313.15 K, 76000 kPa	521.9 mPa·s
313.15 K, 101400 kPa	708.3 mPa·s
313.15 K, 125200 kPa	939.3 mPa·s
313.15 K, 150000 kPa	1254 mPa·s
323.15 K, 100 kPa	119.2 mPa·s and 117 mPa·s
323.15 K, 7600 kPa	118.3 mPa·s
323.15 K, 25800 kPa	161.7 mPa·s
323.15 K, 50600 kPa	217.1 mPa·s
323.15 K, 76000 kPa	290.7 mPa·s
323.15 K, 100900 kPa	384 mPa·s
323.15 K, 125800 kPa	503.9 mPa·s
323.15 K, 150100 kPa	655 mPa·s
323.15 K, 174800 kPa	850.1 mPa·s
333.15 K, 100 kPa	75.2 mPa·s and 74.4 mPa·s
333.15 K, 40500 kPa	118.5 mPa·s
333.15 K, 80800 kPa	182.8 mPa·s
333.15 K, 120800 kPa	275.7 mPa·s
333.15 K, 160600 kPa	408.7 mPa·s
333.15 K, 200100 kPa	598.9 mPa·s
343.15 K, 100 kPa	49.7 mPa·s
348.15 K, 100 kPa	41.3 mPa·s
348.15 K, 800 kPa	41.9 mPa·s
348.15 K, 40700 kPa	63.7 mPa·s
348.15 K, 80800 kPa	94.2 mPa·s
348.15 K, 120700 kPa	136.4 mPa·s
348.15 K, 160600 kPa	194.8 mPa·s
348.15 K, 200200 kPa	274.5 mPa·s
348.15 K, 238500 kPa	378 mPa·s
353.15 K, 100 kPa	34.8 mPa·s

Details	mass density
273.15 K	1313.39 kg/m3
278.15 K	1309.33 kg/m3
283.15 K	1305.29 kg/m3
288.15 K	1301.26 kg/m3
293.15 K	1297.24 kg/m3
298.15 K	1293.22 kg/m3
303.15 K	1289.21 kg/m3
313.15 K	1281.17 kg/m3
323.15 K	1273.44 kg/m3
333.15 K	1265.69 kg/m3 and 1265.68 kg/m3
343.15 K	1257.96 kg/m3
353.15 K	1250.28 kg/m3
363.15 K	1242.64 kg/m3
